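Each compound was tested at five concentrations against cells in 96-well plates for 48 hours. Abbreviation: GI50, concentration required for 50% inhibition of growth.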 The source made the active and inactive calls. Rule as the data show it: active = GI50 up to about 1.1 µM and inactive = higher.
Experiments:
Assay in all cases: NCI anticancer screen, dose series, 48 h
SF-295 = system: SF-295
ACHN = system: ACHN
LXFL 529 = system: LXFL 529
OVCAR-4 = system: OVCAR-4
TK-10 = system: TK-10
KM12 = system: KM12
UACC-257 = system: UACC-257
EKVX = system: EKVX
HCT-116 = system: HCT-116
SNB-19 = system: SNB-19
K562 = system: K562
HOP-92 = system: HOP-92
HT-29 = system: HT-29
OVCAR-5 = system: OVCAR-5
NCI-H522 = system: NCI-H522
LOX IMVI = system: LOX IMVI
UACC-62 = system: UACC-62
SF-268 = system: SF-268
CAKI-1 = system: CAKI-1
CCRF-CEM = system: CCRF-CEM
A498 = system: A498
DMS-273 = system: DMS-273
NCI-H23 = system: NCI-H23
SK-MEL-28 = system: SK-MEL-28
Malme-3M = system: Malme-3M
786-0 = system: 786-0
OVCAR-8 = system: OVCAR-8
SK-OV-3 = system: SK-OV-3
SW-620 = system: SW-620
M14 = system: M14
SK-MEL-2 = system: SK-MEL-2
MOLT-4 = system: MOLT-4
SF-539 = system: SF-539
RPMI-8226 = system: RPMI-8226
A549 = system: A549
DLD-1 = system: DLD-1
M19-MEL = system: M19-MEL
NCI-H226 = system: NCI-H226
KM-20L2 = system: KM-20L2
HOP-18 = system: HOP-18
OVCAR-3 = system: OVCAR-3
SR = system: SR
DMS-114 = system: DMS-114
SN12C = system: SN12C
NCI-H460 = system: NCI-H460
HCT-15 = system: HCT-15
UO-31 = system: UO-31
SK-MEL-5 = system: SK-MEL-5
RXF 393 = system: RXF 393
SNB-75 = system: SNB-75
COLO 205 = system: COLO 205
HL-60 = system: HL-60
U-251 = system: U-251
HCC 2998 = system: HCC 2998
SNB-78 = system: SNB-78

With `Nc1c(-c2ccccc2-c2c(N)[n+]([O-])c3ccccc3[n+]2[O-])[n+]([O-])c2ccccc2[n+]1[O-]` the GI50 (SF-295) was 12.9 µM (inactive), the GI50 (ACHN) was 8.32 µM (inactive) and the GI50 (LXFL 529) was 6.19 µM (inactive). The GI50 (OVCAR-4) was 4.89 µM (inactive), the GI50 (TK-10) was 33.7 µM (inactive) and the GI50 (KM12) was 8.32 µM (inactive). For the same compound, the GI50 (UACC-257) was 7.45 µM (inactive), the GI50 (EKVX) was 5.37 µM (inactive) and the GI50 (HCT-116) was 6.71 µM (inactive). The GI50 (SNB-19) was 7.91 µM (inactive), the GI50 (K562) was 5.74 µM (inactive) and the GI50 (HOP-92) was > 100 µM (inactive). The GI50 (HT-29) was 6.9 µM (inactive), the GI50 (OVCAR-5) was 64.6 µM (inactive) and the GI50 (NCI-H522) was 2.06 µM (inactive). For the same compound, the GI50 (LOX IMVI) was 8.83 µM (inactive), the GI50 (UACC-62) was 3.7 µM (inactive) and the GI50 (SF-268) was 3.16 µM (inactive). The GI50 (CAKI-1) was 33.5 µM (inactive), the GI50 (CCRF-CEM) was 2.49 µM (inactive) and the GI50 (A498) was 20.8 µM (inactive). The GI50 (DMS-273) was 4.66 µM (inactive), the GI50 (NCI-H23) was 15.6 µM (inactive) and the GI50 (SK-MEL-28) was 23 µM (inactive). For the same compound, the GI50 (Malme-3M) was 35 µM (inactive), the GI50 (786-0) was 12 µM (inactive) and the GI50 (OVCAR-8) was 3.7 µM (inactive). For the same compound, the GI50 (SK-OV-3) was 22.9 µM (inactive), the GI50 (SW-620) was 8.45 µM (inactive) and the GI50 (M14) was 12.2 µM (inactive). The GI50 (SK-MEL-2) was 34.8 µM (inactive), the GI50 (MOLT-4) was 2.1 µM (inactive) and the GI50 (SF-539) was 17.5 µM (inactive). For the same compound, the GI50 (RPMI-8226) was 4.73 µM (inactive), the GI50 (A549) was 11.4 µM (inactive) and the GI50 (DLD-1) was 4.63 µM (inactive). For the same compound, the GI50 (M19-MEL) was 8.41 µM (inactive), the GI50 (NCI-H226) was 19.5 µM (inactive) and the GI50 (KM-20L2) was 4.33 µM (inactive). For the same compound, the GI50 (HOP-18) was 7.71 µM (inactive), the GI50 (OVCAR-3) was 7.45 µM (inactive) and the GI50 (SR) was 4.3 µM (inactive). The GI50 (DMS-114) was 3.36 µM (inactive), the GI50 (SN12C) was 6.17 µM (inactive) and the GI50 (NCI-H460) was 2.51 µM (inactive). For the same compound, the GI50 (HCT-15) was 5.28 µM, the GI50 (UO-31) was 10 µM (inactive) and the GI50 (SK-MEL-5) was 10.7 µM (inactive). For the same compound, the GI50 (RXF 393) was 30.3 µM (inactive), the GI50 (SNB-75) was 22.2 µM (inactive) and the GI50 (COLO 205) was 4.69 µM (inactive). The GI50 (HL-60) was 3.69 µM (inactive), the GI50 (U-251) was 5.46 µM (inactive) and the GI50 (HCC 2998) was 22 µM (inactive). For the same compound, the GI50 (SNB-78) was 71.8 µM (inactive).

Source: ChEMBL document CHEMBL1201862, “PubChem BioAssay data set” (2004)
